Test results published in EP4464309A1, “ANTIDANDRUFF COMPOSITION COMPRISING 1-ACETOXYCHAVICOL ACETATE” (Analyticon Discovery GmbH, priority 2023, dated 2024).
Read-outs that look alike come from different tables or passages of the source.

Key:
[1] = Chemical stability of 2% solutions of 1-acetoxychavicol acetate on storage, followed by HPLC; format: physicochemical
Protocol: 1-acetoxychavicol acetate was dissolved as a 2% solution in water ethanol (70:30), an aqueous shampoo formulation, and in various vegetable oils. […] Table 1 Assessment of stability of 2% solutions of 1-acetoxychavicol acetate in wt.-percent over time

[2] = as above; format: physicochemical; details: solutions of up to 5 wt.-percent in vegetable oil, e.g. sunflower or rape seed oil; even at higher temperatures
[3] = cited from earlier work

C=CC(OC(C)=O)c1ccc(OC(C)=O)cc1 (centres unmarked) [1-acetoxychavicol acetate]
degradation ([1]; 2% solution in the shampoo formulation): fast degradation
degradation ([1]; 2% solution in vegetable oils, after 20 weeks of storage): no relevant degradation
degradation ([1]; 2% solution in water (water ethanol 70:30)): fast degradation
stability of 2% solutions of 1-acetoxychavicol acetate ([1]; Aq. Ethanol, storage time 0 w): 100 wt.-percent
stability of 2% solutions of 1-acetoxychavicol acetate ([1]; Aq. Ethanol, storage time 1 w): 80 wt.-percent
stability of 2% solutions of 1-acetoxychavicol acetate ([1]; Aq. Ethanol, storage time 2 w): 60 wt.-percent
stability of 2% solutions of 1-acetoxychavicol acetate ([1]; Aq. Ethanol, storage time 3 w): 50 wt.-percent
stability of 2% solutions of 1-acetoxychavicol acetate ([1]; Aq. Ethanol, storage time 4 w): 30 wt.-percent
stability of 2% solutions of 1-acetoxychavicol acetate ([1]; Aq. Ethanol, storage time 5 w): 20 wt.-percent
stability of 2% solutions of 1-acetoxychavicol acetate ([1]; Aq. Ethanol, storage time 6 w): 0 wt.-percent
stability of 2% solutions of 1-acetoxychavicol acetate ([1]; Aq. Ethanol, storage time 7 w): 0 wt.-percent
stability of 2% solutions of 1-acetoxychavicol acetate ([1]; Aq. Ethanol, storage time 8 w): 0 wt.-percent
stability of 2% solutions of 1-acetoxychavicol acetate ([1]; Aq. Ethanol, storage time 9 w): 0 wt.-percent
stability of 2% solutions of 1-acetoxychavicol acetate ([1]; Aq. Ethanol, storage time 10 w): 0 wt.-percent
stability of 2% solutions of 1-acetoxychavicol acetate ([1]; Aq. Ethanol, storage time 15 w): 0 wt.-percent
stability of 2% solutions of 1-acetoxychavicol acetate ([1]; Aq. Ethanol, storage time 20 w): 0 wt.-percent
stability of 2% solutions of 1-acetoxychavicol acetate ([1]; HO Rape seed oil, storage time 0 w): 100 wt.-percent
stability of 2% solutions of 1-acetoxychavicol acetate ([1]; HO Rape seed oil, storage time 1 w): 100 wt.-percent
stability of 2% solutions of 1-acetoxychavicol acetate ([1]; HO Rape seed oil, storage time 2 w): 100 wt.-percent
stability of 2% solutions of 1-acetoxychavicol acetate ([1]; HO Rape seed oil, storage time 3 w): 100 wt.-percent
stability of 2% solutions of 1-acetoxychavicol acetate ([1]; HO Rape seed oil, storage time 4 w): 100 wt.-percent
stability of 2% solutions of 1-acetoxychavicol acetate ([1]; HO Rape seed oil, storage time 5 w): 100 wt.-percent
stability of 2% solutions of 1-acetoxychavicol acetate ([1]; HO Rape seed oil, storage time 6 w): 100 wt.-percent
stability of 2% solutions of 1-acetoxychavicol acetate ([1]; HO Rape seed oil, storage time 7 w): 100 wt.-percent
stability of 2% solutions of 1-acetoxychavicol acetate ([1]; HO Rape seed oil, storage time 8 w): 100 wt.-percent
stability of 2% solutions of 1-acetoxychavicol acetate ([1]; HO Rape seed oil, storage time 9 w): 100 wt.-percent
stability of 2% solutions of 1-acetoxychavicol acetate ([1]; HO Rape seed oil, storage time 10 w): 100 wt.-percent
stability of 2% solutions of 1-acetoxychavicol acetate ([1]; HO Rape seed oil, storage time 15 w): 100 wt.-percent
stability of 2% solutions of 1-acetoxychavicol acetate ([1]; HO Rape seed oil, storage time 20 w): 100 wt.-percent
stability of 2% solutions of 1-acetoxychavicol acetate ([1]; HO Sunflower oil, storage time 0 w): 100 wt.-percent
stability of 2% solutions of 1-acetoxychavicol acetate ([1]; HO Sunflower oil, storage time 1 w): 100 wt.-percent
stability of 2% solutions of 1-acetoxychavicol acetate ([1]; HO Sunflower oil, storage time 2 w): 100 wt.-percent
stability of 2% solutions of 1-acetoxychavicol acetate ([1]; HO Sunflower oil, storage time 3 w): 100 wt.-percent
stability of 2% solutions of 1-acetoxychavicol acetate ([1]; HO Sunflower oil, storage time 4 w): 100 wt.-percent
stability of 2% solutions of 1-acetoxychavicol acetate ([1]; HO Sunflower oil, storage time 5 w): 100 wt.-percent
stability of 2% solutions of 1-acetoxychavicol acetate ([1]; HO Sunflower oil, storage time 6 w): 100 wt.-percent
stability of 2% solutions of 1-acetoxychavicol acetate ([1]; HO Sunflower oil, storage time 7 w): 100 wt.-percent
stability of 2% solutions of 1-acetoxychavicol acetate ([1]; HO Sunflower oil, storage time 8 w): 100 wt.-percent
stability of 2% solutions of 1-acetoxychavicol acetate ([1]; HO Sunflower oil, storage time 9 w): 100 wt.-percent
stability of 2% solutions of 1-acetoxychavicol acetate ([1]; HO Sunflower oil, storage time 10 w): 100 wt.-percent
stability of 2% solutions of 1-acetoxychavicol acetate ([1]; HO Sunflower oil, storage time 15 w): 100 wt.-percent
stability of 2% solutions of 1-acetoxychavicol acetate ([1]; HO Sunflower oil, storage time 20 w): 90 wt.-percent
stability of 2% solutions of 1-acetoxychavicol acetate ([1]; Olive oil, storage time 0 w): 100 wt.-percent
stability of 2% solutions of 1-acetoxychavicol acetate ([1]; Olive oil, storage time 1 w): 100 wt.-percent
stability of 2% solutions of 1-acetoxychavicol acetate ([1]; Olive oil, storage time 2 w): 100 wt.-percent
stability of 2% solutions of 1-acetoxychavicol acetate ([1]; Olive oil, storage time 3 w): 100 wt.-percent
stability of 2% solutions of 1-acetoxychavicol acetate ([1]; Olive oil, storage time 4 w): 100 wt.-percent
stability of 2% solutions of 1-acetoxychavicol acetate ([1]; Olive oil, storage time 5 w): 100 wt.-percent
stability of 2% solutions of 1-acetoxychavicol acetate ([1]; Olive oil, storage time 6 w): 100 wt.-percent
stability of 2% solutions of 1-acetoxychavicol acetate ([1]; Olive oil, storage time 7 w): 95 wt.-percent
stability of 2% solutions of 1-acetoxychavicol acetate ([1]; Olive oil, storage time 8 w): 95 wt.-percent
stability of 2% solutions of 1-acetoxychavicol acetate ([1]; Olive oil, storage time 9 w): 95 wt.-percent
stability of 2% solutions of 1-acetoxychavicol acetate ([1]; Olive oil, storage time 10 w): 90 wt.-percent
stability of 2% solutions of 1-acetoxychavicol acetate ([1]; Olive oil, storage time 15 w): 90 wt.-percent
stability of 2% solutions of 1-acetoxychavicol acetate ([1]; Olive oil, storage time 20 w): 85 wt.-percent
stability of 2% solutions of 1-acetoxychavicol acetate ([1]; Peanut oil, storage time 0 w): 100 wt.-percent
stability of 2% solutions of 1-acetoxychavicol acetate ([1]; Peanut oil, storage time 1 w): 100 wt.-percent
stability of 2% solutions of 1-acetoxychavicol acetate ([1]; Peanut oil, storage time 2 w): 100 wt.-percent
stability of 2% solutions of 1-acetoxychavicol acetate ([1]; Peanut oil, storage time 3 w): 100 wt.-percent
stability of 2% solutions of 1-acetoxychavicol acetate ([1]; Peanut oil, storage time 4 w): 100 wt.-percent
stability of 2% solutions of 1-acetoxychavicol acetate ([1]; Peanut oil, storage time 5 w): 100 wt.-percent
stability of 2% solutions of 1-acetoxychavicol acetate ([1]; Peanut oil, storage time 6 w): 100 wt.-percent
stability of 2% solutions of 1-acetoxychavicol acetate ([1]; Peanut oil, storage time 7 w): 95 wt.-percent
stability of 2% solutions of 1-acetoxychavicol acetate ([1]; Peanut oil, storage time 8 w): 95 wt.-percent
stability of 2% solutions of 1-acetoxychavicol acetate ([1]; Peanut oil, storage time 9 w): 95 wt.-percent
stability of 2% solutions of 1-acetoxychavicol acetate ([1]; Peanut oil, storage time 10 w): 90 wt.-percent
stability of 2% solutions of 1-acetoxychavicol acetate ([1]; Peanut oil, storage time 15 w): 90 wt.-percent
stability of 2% solutions of 1-acetoxychavicol acetate ([1]; Peanut oil, storage time 20 w): 85 wt.-percent
stability of 2% solutions of 1-acetoxychavicol acetate ([1]; Sesame oil, storage time 0 w): 100 wt.-percent
stability of 2% solutions of 1-acetoxychavicol acetate ([1]; Sesame oil, storage time 1 w): 100 wt.-percent
stability of 2% solutions of 1-acetoxychavicol acetate ([1]; Sesame oil, storage time 2 w): 100 wt.-percent
stability of 2% solutions of 1-acetoxychavicol acetate ([1]; Sesame oil, storage time 3 w): 100 wt.-percent
stability of 2% solutions of 1-acetoxychavicol acetate ([1]; Sesame oil, storage time 4 w): 100 wt.-percent
stability of 2% solutions of 1-acetoxychavicol acetate ([1]; Sesame oil, storage time 5 w): 100 wt.-percent
stability of 2% solutions of 1-acetoxychavicol acetate ([1]; Sesame oil, storage time 6 w): 100 wt.-percent
stability of 2% solutions of 1-acetoxychavicol acetate ([1]; Sesame oil, storage time 7 w): 95 wt.-percent
stability of 2% solutions of 1-acetoxychavicol acetate ([1]; Sesame oil, storage time 8 w): 95 wt.-percent
stability of 2% solutions of 1-acetoxychavicol acetate ([1]; Sesame oil, storage time 9 w): 95 wt.-percent
stability of 2% solutions of 1-acetoxychavicol acetate ([1]; Sesame oil, storage time 10 w): 90 wt.-percent
stability of 2% solutions of 1-acetoxychavicol acetate ([1]; Sesame oil, storage time 15 w): 90 wt.-percent
stability of 2% solutions of 1-acetoxychavicol acetate ([1]; Sesame oil, storage time 20 w): 85 wt.-percent
stability of 2% solutions of 1-acetoxychavicol acetate ([1]; Shampoo, storage time 0 w): 100 wt.-percent
stability of 2% solutions of 1-acetoxychavicol acetate ([1]; Shampoo, storage time 1 w): 80 wt.-percent
stability of 2% solutions of 1-acetoxychavicol acetate ([1]; Shampoo, storage time 2 w): 60 wt.-percent
stability of 2% solutions of 1-acetoxychavicol acetate ([1]; Shampoo, storage time 3 w): 55 wt.-percent
stability of 2% solutions of 1-acetoxychavicol acetate ([1]; Shampoo, storage time 4 w): 50 wt.-percent
stability of 2% solutions of 1-acetoxychavicol acetate ([1]; Shampoo, storage time 5 w): 40 wt.-percent
stability of 2% solutions of 1-acetoxychavicol acetate ([1]; Shampoo, storage time 6 w): 35 wt.-percent
stability of 2% solutions of 1-acetoxychavicol acetate ([1]; Shampoo, storage time 7 w): 30 wt.-percent
stability of 2% solutions of 1-acetoxychavicol acetate ([1]; Shampoo, storage time 8 w): 25 wt.-percent
stability of 2% solutions of 1-acetoxychavicol acetate ([1]; Shampoo, storage time 9 w): 20 wt.-percent
stability of 2% solutions of 1-acetoxychavicol acetate ([1]; Shampoo, storage time 10 w): 10 wt.-percent
stability of 2% solutions of 1-acetoxychavicol acetate ([1]; Shampoo, storage time 15 w): 0 wt.-percent
stability of 2% solutions of 1-acetoxychavicol acetate ([1]; Shampoo, storage time 20 w): 0 wt.-percent
stability ([1]; solution in rapeseed oil): particularly stable
stability ([1]; solution in sunflower oil): particularly stable
stability [2]: remains stable over months
stability ([3]; in aqueous solution): instable
time stable ([3]; in vegetable oil, at up to 120°C): at least 1 h
stability ([3]; solution with 30-40% ethanol, neutral pH, room temperature): stable for several month
stability ([3]; under thermal treatment, e.g. distillation): instable
